Measured values published in PubChem BioAssay (NCI).
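1) Cells in 96-well plates. 2) Compound, 48 h, 5 concentrations. 3) Linear interpolation between surrounding doses. 4) Unreached endpoint = highest concentration. TGI denotes the concentration required for complete inhibition of growth.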

Legend:
Assay in all cases: NCI anticancer screen, dose series, 48 h
786-0 renal = system: 786-0 renal
NCI-H460 lung = system: NCI-H460 lung
SF-539 CNS = system: SF-539 CNS
OVCAR-5 ovarian = system: OVCAR-5 ovarian
SK-MEL-28 melanoma = system: SK-MEL-28 melanoma
HCT-15 colon = system: HCT-15 colon
DU-145 prostate = system: DU-145 prostate
SF-295 CNS = system: SF-295 CNS
SR leukemia = system: SR leukemia
KM12 colon = system: KM12 colon
MALME-3M melanoma = system: MALME-3M melanoma
UO-31 renal = system: UO-31 renal
A498 renal = system: A498 renal
OVCAR-3 ovarian = system: OVCAR-3 ovarian
OVCAR-8 ovarian = system: OVCAR-8 ovarian
MDA-N = system: MDA-N
RXF 393 renal = system: RXF 393 renal
MDA-MB-231 breast = system: MDA-MB-231 breast
NCI/ADR-RES ovarian = system: NCI/ADR-RES ovarian
OVCAR-4 ovarian = system: OVCAR-4 ovarian
SN12C renal = system: SN12C renal
SNB-19 CNS = system: SNB-19 CNS
TK-10 renal = system: TK-10 renal
CCRF-CEM leukemia = system: CCRF-CEM leukemia
SNB-75 CNS = system: SNB-75 CNS
COLO 205 colon = system: COLO 205 colon
A549 NSCLC = system: A549 NSCLC
ACHN renal = system: ACHN renal
NCI-H226 lung = system: NCI-H226 lung
LOX IMVI melanoma = system: LOX IMVI melanoma
SK-MEL-5 melanoma = system: SK-MEL-5 melanoma
HCC-2998 colon = system: HCC-2998 colon
PC-3 prostate = system: PC-3 prostate
UACC-257 melanoma = system: UACC-257 melanoma
M14 melanoma = system: M14 melanoma
U251 CNS = system: U251 CNS
HOP-62 NSCLC = system: HOP-62 NSCLC
SW-620 colon = system: SW-620 colon
HL-60(TB) leukemia = system: HL-60(TB) leukemia
EKVX NSCLC = system: EKVX NSCLC
K-562 leukemia = system: K-562 leukemia
SK-OV-3 ovarian = system: SK-OV-3 ovarian
CAKI-1 renal = system: CAKI-1 renal
SF-268 CNS = system: SF-268 CNS
HCT-116 colon = system: HCT-116 colon
NCI-H522 lung = system: NCI-H522 lung
MOLT-4 leukemia = system: MOLT-4 leukemia
NCI-H23 lung = system: NCI-H23 lung
HS 578T breast = system: HS 578T breast
RPMI-8226 leukemia = system: RPMI-8226 leukemia
IGROV1 ovarian = system: IGROV1 ovarian
SK-MEL-2 melanoma = system: SK-MEL-2 melanoma
MDA-MB-435 = system: MDA-MB-435
HOP-92 NSCLC = system: HOP-92 NSCLC
T-47D breast = system: T-47D breast
UACC-62 melanoma = system: UACC-62 melanoma
HT29 colon = system: HT29 colon
MCF7 breast = system: MCF7 breast

CCOC(=O)c1c(C)n(Cc2ccccc2)c(=O)c2ccccc2c(=O)c2c(=O)ccc(=O)c1=2
TGI (786-0 renal): 75.3 µM | TGI (NCI-H460 lung): > 100 µM | TGI (SF-539 CNS): > 100 µM | TGI (OVCAR-5 ovarian): > 100 µM | TGI (SK-MEL-28 melanoma): > 100 µM | TGI (HCT-15 colon): > 100 µM | TGI (DU-145 prostate): > 100 µM | TGI (SF-295 CNS): > 100 µM | TGI (SR leukemia): > 100 µM | TGI (KM12 colon): > 100 µM | TGI (MALME-3M melanoma): 41.9 µM | TGI (UO-31 renal): 34.7 µM | TGI (A498 renal): > 100 µM | TGI (OVCAR-3 ovarian): > 100 µM | TGI (OVCAR-8 ovarian): > 100 µM | TGI (MDA-N): > 100 µM | TGI (RXF 393 renal): 40.7 µM | TGI (MDA-MB-231 breast): > 100 µM | TGI (NCI/ADR-RES ovarian): > 100 µM | TGI (OVCAR-4 ovarian): > 100 µM | TGI (SN12C renal): > 100 µM | TGI (SNB-19 CNS): > 100 µM | TGI (TK-10 renal): 54 µM | TGI (CCRF-CEM leukemia): > 100 µM | TGI (SNB-75 CNS): > 100 µM | TGI (COLO 205 colon): > 100 µM | TGI (A549 NSCLC): > 100 µM | TGI (ACHN renal): 77.1 µM | TGI (NCI-H226 lung): > 100 µM | TGI (LOX IMVI melanoma): 53.5 µM | TGI (SK-MEL-5 melanoma): > 100 µM | TGI (HCC-2998 colon): > 100 µM | TGI (PC-3 prostate): > 100 µM | TGI (UACC-257 melanoma): > 100 µM | TGI (M14 melanoma): > 100 µM | TGI (U251 CNS): > 100 µM | TGI (HOP-62 NSCLC): > 100 µM | TGI (SW-620 colon): > 100 µM | TGI (HL-60(TB) leukemia): > 100 µM | TGI (EKVX NSCLC): > 100 µM | TGI (K-562 leukemia): > 100 µM | TGI (SK-OV-3 ovarian): > 100 µM | TGI (CAKI-1 renal): > 100 µM | TGI (SF-268 CNS): > 100 µM | TGI (HCT-116 colon): 46.8 µM | TGI (NCI-H522 lung): 62.8 µM | TGI (MOLT-4 leukemia): > 100 µM | TGI (NCI-H23 lung): > 100 µM | TGI (HS 578T breast): > 100 µM | TGI (RPMI-8226 leukemia): 67.3 µM | TGI (IGROV1 ovarian): 67.9 µM | TGI (SK-MEL-2 melanoma): > 100 µM | TGI (MDA-MB-435): > 100 µM | TGI (HOP-92 NSCLC): 41.5 µM | TGI (T-47D breast): 86.3 µM | TGI (UACC-62 melanoma): > 100 µM | TGI (HT29 colon): > 100 µM

COc1ccc(/C=C2\C=Cc3ccccc32)cc1OC
TGI (786-0 renal): > 100 µM | TGI (NCI-H460 lung): > 100 µM | TGI (MCF7 breast): > 100 µM | TGI (SF-539 CNS): > 100 µM | TGI (OVCAR-5 ovarian): > 100 µM | TGI (SK-MEL-28 melanoma): > 100 µM | TGI (HCT-15 colon): > 100 µM | TGI (DU-145 prostate): > 100 µM | TGI (SF-295 CNS): > 100 µM | TGI (SR leukemia): > 100 µM | TGI (KM12 colon): > 100 µM | TGI (MALME-3M melanoma): > 100 µM | TGI (A498 renal): > 100 µM | TGI (OVCAR-3 ovarian): > 100 µM | TGI (OVCAR-8 ovarian): > 100 µM | TGI (MDA-N): > 100 µM | TGI (RXF 393 renal): > 100 µM | TGI (MDA-MB-231 breast): > 100 µM | TGI (NCI/ADR-RES ovarian): > 100 µM | TGI (OVCAR-4 ovarian): > 100 µM | TGI (SN12C renal): > 100 µM | TGI (SNB-19 CNS): > 100 µM | TGI (TK-10 renal): > 100 µM | TGI (CCRF-CEM leukemia): > 100 µM | TGI (SNB-75 CNS): 82.2 µM | TGI (COLO 205 colon): > 100 µM | TGI (A549 NSCLC): > 100 µM | TGI (ACHN renal): > 100 µM | TGI (NCI-H226 lung): > 100 µM | TGI (LOX IMVI melanoma): > 100 µM | TGI (SK-MEL-5 melanoma): > 100 µM | TGI (HCC-2998 colon): > 100 µM | TGI (PC-3 prostate): > 100 µM | TGI (UACC-257 melanoma): > 100 µM | TGI (M14 melanoma): > 100 µM | TGI (U251 CNS): > 100 µM | TGI (HOP-62 NSCLC): > 100 µM | TGI (SW-620 colon): > 100 µM | TGI (HL-60(TB) leukemia): 69.5 µM | TGI (EKVX NSCLC): > 100 µM | TGI (K-562 leukemia): > 100 µM | TGI (SK-OV-3 ovarian): > 100 µM | TGI (CAKI-1 renal): > 100 µM | TGI (SF-268 CNS): > 100 µM | TGI (HCT-116 colon): > 100 µM | TGI (NCI-H522 lung): > 100 µM | TGI (MOLT-4 leukemia): > 100 µM | TGI (NCI-H23 lung): > 100 µM | TGI (HS 578T breast): 89.6 µM | TGI (IGROV1 ovarian): > 100 µM | TGI (SK-MEL-2 melanoma): > 100 µM | TGI (MDA-MB-435): > 100 µM | TGI (HOP-92 NSCLC): 64.9 µM | TGI (T-47D breast): > 100 µM | TGI (UACC-62 melanoma): > 100 µM | TGI (HT29 colon): > 100 µM
